experiment: Positive allosteric modulator activity at rat cortical membrane GABA-B receptor incubated for 60 min by [35S]GTPgammaS binding assay; format: cell membranes, Cortex

pEC50 | SMILES
6.13 | Cc1ncc(-c2ccc(C(F)(F)F)cc2)c(N[C@@H]2C[C@H]3CC[C@@H]2C3)n1
7.75 | CSc1c(C)nc2cc(-c3ccc(Cl)cc3)nn2c1-c1cccc(NC(C)=O)c1
7.15 | CSc1c(C)nc2cc(-c3ccc(Cl)cc3)nn2c1N1CCC[C@@H](C(=O)O)C1
6.89 | COc1nn(-c2ccc(F)c(NC(C)=O)c2)c(=O)n(Cc2ccc(Cl)c(F)c2)c1=O
6.42 | CC(=O)Nc1cccc(-c2c(S(C)(=O)=O)c(C)nc3cc(-c4ccc(Cl)cc4)nn23)c1
5.83 | Cc1nc2ccc(I)cc2c(N2CCCCC2)c1S(C)(=O)=O
6.19 | CC(=O)Nc1cccc(-c2c([S+](C)[O-])c(C)nc3cc(-c4ccc(Cl)cc4)nn23)c1 (stereo not given)
6.75 | CSc1c(C)nc2cc(-c3ccc(Cl)cc3)nn2c1N1CCC[C@H](C(=O)O)C1
6.6 | CC(=O)Nc1cccc(-c2cc(C)nc3cc(-c4ccc(Cl)cc4)nn23)c1
6.17 | CC(=O)Nc1ccccc1-c1cc(C)nc2cc(-c3ccc(Cl)cc3)nn12
5.85 | CCOC(=O)C1CCCN(c2cc(C)nc3cc(-c4ccc(Cl)cc4)nn23)C1 (racemic)
6.59 | Cc1nc(N2CCCCC2CCO)c2sc(-c3ccc(Cl)cc3)cc2n1 (racemic)
5.4 | Cc1cc(NC2CCCNC2=O)n2nc(-c3ccc(Cl)cc3)cc2n1 (racemic)
5.78 | Cc1nc2cc(-c3ccc(Cl)cc3)nn2c(N2CCOCC2CCO)c1C#N (racemic)
6.24 | Cc1nc(N2CCCCC2CCO)c2nc(-c3ccc(Cl)cc3)cn2n1 (racemic)
6.09 | CCOC(=O)C1=C(N2CCOCC2CCO)N2N=C(c3ccc(Cl)cc3)CC2N=C1C (racemic)
7.05 | COc1c(C)nc2cc(-c3ccc(Cl)cc3)nn2c1N1CCCCC1CCO (racemic)

pEC50 | SMILES
6.22 | Cc1cc(N2CCCCC2CCO)c2sc(-c3ccc(Cl)cc3)cc2n1 (racemic)
5.29 | Cc1cc(N2CCCCC2CCO)n2nc(-c3ccc(C#N)cc3)cc2n1 (racemic)
5.91 | Cc1cc(N2CCCCC2CCO)n2nc(-c3ccccc3)cc2n1 (racemic)
5.69 | COc1c(C)nc2cc(-c3ccc(Cl)cc3)nn2c1N1CCCC(C(=O)O)C1 (racemic)
6.63 | Cc1nc(N2CCCCC2CCO)n2nc(-c3ccc(Cl)cc3)cc2n1 (racemic)
5.61 | Cc1cc(N2CCOCC2CCO)n2nc(-c3ccc(Cl)cc3)cc2n1 (racemic)
5.3 | Cc1cc(N2CCCCC2CCO)n2nc(-c3cccc(Cl)c3)cc2n1 (racemic)
6.55 | Cc1cc(N2CCCCC2C(N)=O)n2nc(-c3ccc(Cl)cc3)cc2n1 (racemic)
5.97 | Cc1cc(N2CCCCC2C(=O)O)n2nc(-c3ccc(Cl)cc3)cc2n1 (racemic)
5.25 | COc1ccc(-c2cc3nc(C)cc(N4CCCCC4CCO)n3n2)cc1 (racemic)
5.93 | Cc1cc(N2CCCCC2CCO)n2nc(-c3ccc(F)cc3)cc2n1 (racemic)
5.92 | Cc1cc(N2CCCCC2CCO)c2cc(-c3ccc(Cl)cc3)oc2n1 (racemic)
6.21 | Cc1cc(N2CCCCC2CCO)n2nc(-c3ccc(Cl)cc3)cc2n1 (racemic)
6.93 | CSc1c(C)nc2cc(-c3ccc(Cl)cc3)nn2c1N1CCCC(C(=O)O)C1 (racemic)
5.32 | Cc1cc(N2CCCC(C(=O)O)C2)n2nc(-c3ccc(Cl)cc3)cc2n1 (racemic)
5.89 | Cc1cc(NC2CCCCNC2=O)n2nc(-c3ccc(Cl)cc3)cc2n1 (racemic)
5.24 | Cc1cc(N2CCCCC2CCO)n2nc(Cc3ccccc3)cc2n1 (racemic)

SMILES | pEC50
CC(C)(C)c1cc(C(C)(C)C)c2c(c1)C(O)(C(F)(F)F)C(=O)O2 (racemic) | 6.78
